Results reported in the NIST ThermoML archive (doi:10.1016/j.jct.2009.06.011).
± gives the expanded uncertainty stated by the source.

Experiment: activity coefficient (dimensionless); of the first substance listed, at infinite dilution; xn = mol fraction of the nth substance listed
Details: 101 kPa, Liquid, Chromatography, x1 = 0

Compound	activity coefficient (298.15 K)	activity coefficient (308.15 K)	activity coefficient (318.15 K)	activity coefficient (328.15 K)	activity coefficient (338.15 K)	activity coefficient (348.15 K)	activity coefficient (358.15 K)	activity coefficient (368.15 K)
CCCCCCCCC [nonane] + CCCC[n+]1ccc(C)cc1.O=S(=O)([N-]S(=O)(=O)C(F)(F)F)C(F)(F)F	38.9 ± 2.7	35.5 ± 2.4	32.3 ± 2.2	29.8 ± 2	27.6 ± 1.9	25.6 ± 1.8	23.8 ± 1.6	22 ± 1.5
CCc1ccccc1 [ethylbenzene] + CCCC[n+]1ccc(C)cc1.O=S(=O)([N-]S(=O)(=O)C(F)(F)F)C(F)(F)F			1.45 ± 0.1	1.48 ± 0.1	1.5 ± 0.1	1.52 ± 0.1	1.54 ± 0.1	1.56 ± 0.1
C1CCCCCCC1 [cyclooctane] + CCCC[n+]1ccc(C)cc1.O=S(=O)([N-]S(=O)(=O)C(F)(F)F)C(F)(F)F	13.9 ± 1	12.9 ± 0.9	12 ± 0.8	11.2 ± 0.8	10.4 ± 0.7	9.81 ± 0.67	9.26 ± 0.63	8.74 ± 0.6
C#CCCCCCC [1-octyne] + CCCC[n+]1ccc(C)cc1.O=S(=O)([N-]S(=O)(=O)C(F)(F)F)C(F)(F)F	4.43 ± 0.3	4.42 ± 0.3	4.4 ± 0.3	4.38 ± 0.3	4.37 ± 0.3	4.36 ± 0.3	4.34 ± 0.3	4.33 ± 0.29
CCCCCCC [heptane] + CCCC[n+]1ccc(C)cc1.O=S(=O)([N-]S(=O)(=O)C(F)(F)F)C(F)(F)F	20.4 ± 1.4	18.9 ± 1.3	17.7 ± 1.2	16.6 ± 1.1	15.6 ± 1.1	14.7 ± 1	13.9 ± 1	13.2 ± 0.9
C=CCCCCC [1-heptene] + CCCC[n+]1ccc(C)cc1.O=S(=O)([N-]S(=O)(=O)C(F)(F)F)C(F)(F)F	9.97 ± 0.68	9.56 ± 0.65	9.17 ± 0.63	8.82 ± 0.6	8.51 ± 0.58	8.24 ± 0.56	7.99 ± 0.54	7.76 ± 0.53
C=CCCCC [hex-1-ene] + CCCC[n+]1ccc(C)cc1.O=S(=O)([N-]S(=O)(=O)C(F)(F)F)C(F)(F)F	7.4 ± 0.5	7.11 ± 0.48	6.82 ± 0.47	6.58 ± 0.45	6.37 ± 0.43	6.17 ± 0.42	5.99 ± 0.41	5.82 ± 0.4
CCCCCCCC [octane] + CCCC[n+]1ccc(C)cc1.O=S(=O)([N-]S(=O)(=O)C(F)(F)F)C(F)(F)F	27.9 ± 1.9	25.8 ± 1.8	23.7 ± 1.6	22.1 ± 1.5	20.7 ± 1.4	19.3 ± 1.3	18.1 ± 1.2	17.2 ± 1.2
